Reference: US6479531B1, “Gastrin and cholecystokinin receptor ligands” (James Black Foundation Limited, priority 1998, dated 2002)

molecular target: T1, CCKB receptor (Mus musculus, UniProt P56481); test: CCKB receptor radioligand binding assay in mouse cortical membranes; settings: [125I]-CCK8(S) 200 pM, 150 min at 21±3°
T1 construct: The whole brains from male mice (CD1 22-25 g; Charles River) were removed; from tissue; host or cells: cerebral cortex membranes of male CD1 mice
T1 sequence (P56481 1-453): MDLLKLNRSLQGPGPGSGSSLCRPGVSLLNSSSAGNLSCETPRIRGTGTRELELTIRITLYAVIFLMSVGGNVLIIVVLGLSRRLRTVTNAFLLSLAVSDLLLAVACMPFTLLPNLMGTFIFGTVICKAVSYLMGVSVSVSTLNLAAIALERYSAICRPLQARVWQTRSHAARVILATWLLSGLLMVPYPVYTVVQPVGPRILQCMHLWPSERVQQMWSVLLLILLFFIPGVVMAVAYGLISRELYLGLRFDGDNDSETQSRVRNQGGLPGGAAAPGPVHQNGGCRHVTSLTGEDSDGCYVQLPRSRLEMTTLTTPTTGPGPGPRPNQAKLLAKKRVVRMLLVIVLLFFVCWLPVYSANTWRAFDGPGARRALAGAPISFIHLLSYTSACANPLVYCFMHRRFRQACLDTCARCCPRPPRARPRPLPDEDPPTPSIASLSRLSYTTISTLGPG
Protocol: The compounds of the examples were tested for binding at the CCKB receptor in mouse cortical membranes by means of a radioligand binding assay. The procedure was as follows:
The whole brains from male mice (CD1 22-25 g; Charles River) were removed and placed in ice-cold buffer (pH 7.2 @ 21±3°) of the following composition (mM); 10 HEPES, 130 NaCl, 4.7 KCl, 5 MgCl2, 1 EDTA and containing 0.25 gl^−1 bacitracin. The cortex was dissected, weighed and homogenised in 40 ml ice-cold buffer using a Teflon-in-glass homogeniser. The homogenate was centrifuged at 39800 g for 20 min […], the supernatant discarded and the pellet resuspended by homogenisation in fresh buffer. The homogenate was recentrifuged (39800 g, 20 min @ 4°) and the final pellet was resuspended in HEPES buffer to give a tissue concentration of 20 mg ml^−1 (original wet weight).
The assay was terminated by rapid filtration through pre-soaked Whatman GF/B filters using a Brandell Cell Harvester. The filters were washed (3×3 ml) with ice-cold 50 mM Tris-HCl (pH 7.4 @ 4° C.) and bound radioactivity determined by counting (1 min) in a gamma-counter.

Molecule	CCKB pKi
3-{[5-(2-Methyl-butyl)-2-o-tolyl-1H-imidazole-4-carbonyl]-amino}-benzoic Acid [Example 90]	5.16
5-[(2-Adamantan-1-ylmethyl-5-phenyl-1H-pyrrole-3-carbonyl)-amino-methyl]-isophthalic Acid [Example 9]	5.88

same assay, conditions: [125I]-CCK8(S) 200 pM, 150 min at 21±3°, read-out: CCKB pKi (converted)

Molecule	Ki [nM]
O=C(O)c1ccccc1NC(=O)c1cc(-c2ccccc2)[nH]c1CC12CC3CC(CC(C3)C1)C2 [Example 6, 2-[(2-Adamantan-1-ylmethyl-5-phenyl-1H-pyrrole-3-carbonyl)-amino]-benzoic Acid]	832
O=C(Nc1cc(-c2nnn[nH]2)cc(-c2nnn[nH]2)c1)c1cc(-c2ccccc2)[nH]c1CCC12CC3CC(CC(C3)C1)C2 [Example 18, 2-(2-Adamantan-1-yl-ethyl)-5-phenyl-1H-pyrrole-3-carboxylic Acid [3,5-bis-(1H-tetrazol-5-yl)-phenyl]-amide]	229
Cc1ccccc1-c1nc(C(=O)Nc2cccc(C(=O)O)c2)c(CCC(C)(C)C)[nH]1 [Example 91, 3-{[5-(3,3-Dimethyl-butyl)-2-o-tolyl-1H-imidazole-4-carbonyl]-amino}-benzoic Acid]	3800
O=C(O)c1cccc(NC(=O)c2cc(-c3ccccc3)[nH]c2CC23CC4CC(CC(C4)C2)C3)c1 [Example 3, 3-[(2-Adamantan-1-ylmethyl-5-phenyl-1H-pyrrole-3-carbonyl)-amino]-benzoic Acid]	1450
O=C(O)c1cccc(NC(=O)c2nc(C34CC5CC(CC(C5)C3)C4)[nH]c2CCC23CC4CC(CC(C4)C2)C3)c1 [Example 109, 3-{[2-Adamantan-1-yl-5-(2-adamantan-1-yl-ethyl)-1H-imidazole-4-carbonyl]-amino}-benzoic Acid]	44.7
O=C(O)c1cccc(NC(=O)c2cc(-c3ccc4ccccc4c3)[nH]c2CC2CCCCCC2)c1 [Example 14, 3-[(2-Cycloheptylmethyl-5-naphthalen-2-yl-1H-pyrrole-3-carbonyl)-amino]-benzoic Acid]	1320
O=C(O)c1cc(NC(=O)c2[nH]c(-c3ccc4[nH]ccc4c3)nc2CC2CCCCCC2)cc(C(=O)O)c1 [Example 30, 5-[(5-Cycloheptylmethyl-2-(1H-indol-5-yl)-1H-imidazole-4-carbonyl)-amino]-isophthalic Acid]	1070
O=C(O)c1cccc(NC(=O)c2nc(-c3ccccc3)[nH]c2CCC2CCCCCC2)c1 [Example 38, 3-{[5-(2-Cycloheptyl-ethyl)-2-phenyl-1H-imidazole-4-carbonyl]-amino}-benzoic Acid]	1120
O=C(Nc1cc(-c2nnn[nH]2)cc(-c2nnn[nH]2)c1)c1nc(-c2ccccc2)[nH]c1CC1CCCCCC1 [Example 25, 5-Cycloheptyimethyl-2-phenyl-1H-imidazole-4-carboxylic Acid [3,5-bis-(1H-tetrazol-5-yl)-phenyl]-amide]	69.2

Continued, values first:

Ki [nM]	Molecule
5.37	Cc1ccc(NC(=O)c2nc(-c3c(Cl)cccc3Cl)[nH]c2CCC23CC4CC(CC(C4)C2)C3)cc1C(=O)O [Example 149, 5-{[5-(2-Adamantan-1-yl-ethyl)-2-(2,6-dichlorophenyl)-1H-imidazole-4-carbonyl]-amino}-2-methyl-benzoic Acid]
776	Cc1ccccc1-c1nc(C(=O)NC(C(=O)O)c2ccccc2)c(CCC23CC4CC(CC(C4)C2)C3)[nH]1 (centres unmarked) [Example 102, {[5-(2-Adamantan-1-yl-ethyl)-2-o-tolyl-1H-imidazole-4-carbonyl]-amino}-phenyl-acetic Acid]
25.7	Cc1ccccc1-c1nc(C(=O)Nc2ccc(F)c(C(=O)O)c2F)c(CCC23CC4CC(CC(C4)C2)C3)[nH]1 [Example 248, 3-{[5-(2-Adamantan-1-yl-ethyl)-2-o-tolyl-1H-imidazole-4-carbonyl]-amino}-2,6-difluoro-benzoic Acid]
2.24	Cc1ccccc1-c1nc(C(=O)Nc2cccc(CC(=O)O)c2)c(CCC23CC4CC(CC(C4)C2)C3)[nH]1 [Example 83, (3-{[5-(2-Adamantan-1-yl-ethyl)-2-o-tolyl-1H-imidazole-4-carbonyl]-amino}-phenyl)-acetic Acid]
120	O=C(O)c1cc(NC(=O)c2nc(-c3ccc4ccccc4c3)[nH]c2CCC23CC4CC(CC(C4)C2)C3)cc(C(=O)O)c1 [Example 44, 5-{[5-(2-Adamantan-1-yl-ethyl)-2-naphthalene-2-yl-1H-imidazole-4-carbonyl]-amino}-isophthalic Acid]
263	O=C(O)c1cccc(NC(=O)c2nc(-c3cccc4ccccc34)[nH]c2CCC23CC4CC(CC(C4)C2)C3)c1 [Example 145, 3-{[5-(2-Adamantan-1-yl-ethyl)-2-naphthalen-1-yl-1H-imidazole-4-carbonyl]-amino}-benzoic Acid]
25.1	Cc1ccccc1-c1nc(C(=O)Nc2cccc(OCC(=O)O)c2)c(CCC23CC4CC(CC(C4)C2)C3)[nH]1 [Example 98, (3-{[5-(2-Adamantan-1-yl-ethyl)-2-o-tolyl-1H-imidazole-4-carbonyl]-amino}-phenoxy)-acetic Acid]
282	Cc1ccccc1-c1nc(CCc2cccc(C(=O)O)c2)c(C(=O)NCC23CC4CC(CC(C4)C2)C3)[nH]1 [Example 119, 3-{2-[5-(Adamantan-1-ylmethylcarbamoyl)-2-o-tolyl-1H-imidazol-4-yl]-ethyl}-benzoic Acid]
1860	O=C(O)c1cccc(NC(=O)c2nc(-c3ccncc3)[nH]c2CCC23CC4CC(CC(C4)C2)C3)c1 [Example 180, 3-{[5-(2-Adamantan-1-yl-ethyl)-2-pyridine-4-yl-1H-imidazole-4-carbonyl]-amino}-benzoic Acid]
117	Cc1ccccc1-c1nc(C(=O)Nc2cccc(S(=O)(=O)NC(=O)c3ccccc3)c2)c(CCC23CC4CC(CC(C4)C2)C3)[nH]1 [Example 100, 5-(2-Adamantan-1-yl-ethyl)-2-o-tolyl-1H-imidazole-4-carboxylic Acid (3-benzoylsulfamoyl-phenyl)-amide]
468	O=C(O)c1cccc(NC(=O)c2nc(-c3ccc(Cl)c(Cl)c3)[nH]c2CCC23CC4CC(CC(C4)C2)C3)c1 [Example 68, 3-{[5-(2-Adamantan-1-yl-ethyl)-2-(3,4-dichloro-phenyl)-1H-imidazole-4-carbonyl]-amino}-benzoic Acid]
537	Cc1ccccc1-c1nc(C(=O)Nc2cc(C(=O)O)cc(C(F)(F)F)c2)c(CCC23CC4CC(CC(C4)C2)C3)[nH]1 [Example 243, 3-{[5-(2-Adamantan-1-yl-ethyl)-2-o-tolyl-1H-imidazole-4-carbonyl]-amino}-5-trifluoromethyl-benzoic Acid]
1660	Cc1ccc(NC(=O)c2c(CCC34CC5CC(CC(C5)C3)C4)nc(-c3ccccc3C)n2C)cc1C(=O)O [Example 162, 5-{[5-(2-Adamantan-1-yl-ethyl)-3-methyl-2-o-tolyl-3H-imidazole-4-carbonyl]-amino}-2-methyl-benzoic Acid]
7590	Cc1ccccc1-c1nc(C(=O)Nc2cc(C(=O)O)ccc2Cl)c(CCC23CC4CC(CC(C4)C2)C3)[nH]1 [Example 237, 3-{[5-(2-Adamantan-1-yl-ethyl)-2-o-tolyl-1H-imidazole-4-carbonyl]-amino}-4-chloro-benzoic Acid]

molecular target: T2, gastrin receptor (Rattus norvegicus, UniProt P30553); test: gastrin antagonist activity in immature rat stomach assay (pentagastrin dose-response, acid secretion); settings: isolated immature rat stomach, cumulative pentagastrin dose-response curves
T2 construct: The stomach was excised and flushed with ca. 1 ml of unbuffered physiological saline solution; from tissue; host or cells: isolated whole stomach of immature rats (ca. 21 days old)
T2 sequence (P30553 1-452): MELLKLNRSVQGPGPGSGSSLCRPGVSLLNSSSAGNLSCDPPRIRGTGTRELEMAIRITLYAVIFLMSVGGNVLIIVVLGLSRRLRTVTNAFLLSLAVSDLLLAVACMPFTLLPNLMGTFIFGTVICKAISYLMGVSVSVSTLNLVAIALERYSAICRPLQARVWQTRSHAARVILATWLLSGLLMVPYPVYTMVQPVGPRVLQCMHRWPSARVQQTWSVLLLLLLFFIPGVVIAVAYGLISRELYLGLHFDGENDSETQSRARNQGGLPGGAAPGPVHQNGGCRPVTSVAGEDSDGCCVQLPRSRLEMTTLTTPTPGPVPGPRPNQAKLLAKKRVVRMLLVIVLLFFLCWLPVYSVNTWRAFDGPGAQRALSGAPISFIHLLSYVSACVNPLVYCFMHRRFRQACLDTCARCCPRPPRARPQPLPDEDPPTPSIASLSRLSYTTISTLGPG
How it was run: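 Gastrin antagonism was measured as the effect on cumulative pentagastrin dose-response curves of acid output, recorded by pH electrode in the perfusate of an excised immature rat stomach (ca. 21 days old). Test compound was placed in the serosal bath (37°, 3×10^−8 M 5-methylfurmethide) 60 min before pentagastrin.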

Molecule	Gastrin pKb
O=C(O)c1cccc(NC(=O)c2nc([C@@H]3CC4C=C[C@@H]3C4)[nH]c2COC23CC4CC(CC(C4)C2)C3)c1 [Example 294, exo-3-([5-(Adamantan-1-yloxymethyl)-2-((1S,2R)-bicyclo[2.2.1]hept-5-en-2-yl)-1H-imidazole-4-carbonyl]-amino}-benzoic Acid]	8.43
